≈ marks a conversion by molar mass, not a printed value. Where two headings read alike, the source gives them in different places.
How the values were obtained:
S. flexneri APV00907 = experiment: MIC; type: cell-based; settings: Shigella flexneri; S. flexneri APV00907; read-out: Antibiogram MIC
S. flexneri APV00906 = experiment: MIC; type: cell-based; settings: Shigella flexneri; S. flexneri APV00906; read-out: Antibiogram MIC
K. pneumoniae EN0262 = settings: commercial antibiotics, data provided by IMBIM, BMC, Uppsala University; cited from earlier work
S. sonnei APV00908 = experiment: MIC; type: cell-based; settings: Shigella sonnei; S. sonnei APV00908; read-out: Antibiogram MIC
E. coli EN013 = experiment: MIC; type: cell-based, Escherichia coli; settings: Escherichia coli
A. baumannii EN0007 = experiment: MIC; type: cell-based, A. baumanii; settings: in didanosine+trimethoprim+uridine combination
E. coli EN0001 = experiment: MIC; type: cell-based; settings: in didanosine+trimethoprim+uridine combination
K. pneumoniae EN0006 = experiment: MIC; type: cell-based; settings: in didanosine+trimethoprim+uridine combination
E. coli EN001 = experiment: MIC; type: cell-based, Escherichia coli
P. aeruginosa EN0004 = experiment: MIC; type: cell-based; settings: in didanosine+trimethoprim+uridine combination
E. coli strain no 2 = experiment: MIC; settings: Escherichia coli, NO2, read-out: MIC Didanosine, E. coli strain 2
K. pneumoniae EN011 = experiment: MIC; type: cell-based, Klebsiella pneumoniae; settings: Klebsiella pneumoniae
P. aeruginosa EN015 = experiment: MIC; type: cell-based, Pseudomonas aeruginosa; settings: Pseudomonas aeruginosa
K. oxytoca EN0392 = experiment: MIC; type: cell-based, Klebsiella oxytoca; settings: Klebsiella oxytoca, Combination 2, read-out: MIC, thymidine concentration
P. aeruginosa EN0459 = experiment: MIC; type: cell-based, Pseudomonas aeruginosa; settings: Pseudomonas aeruginosa, Combination 2, read-out: MIC, thymidine concentration
S. marescens EN0454 = experiment: MIC; type: cell-based, Serratia marescens; settings: Serratia, Combination 2, read-out: MIC, thymidine concentration
K. pneumoniae EN010 = experiment: MIC; type: cell-based, Klebsiella pneumoniae; settings: Klebsiella pneumoniae, Combination 2, read-out: MIC, thymidine concentration
A. baumannii EN007 = experiment: MIC; type: cell-based, Acinetobacter baumannii; settings: Acinetobacter baumannii, Combination 2, read-out: MIC, thymidine concentration
E. coli EN012 = experiment: MIC; type: cell-based, Escherichia coli; settings: Escherichia coli, Combination 2, read-out: MIC, thymidine concentration
E. coli EN003 = experiment: MIC; type: cell-based, Escherichia coli; settings: Escherichia coli, Combination 2, read-out: MIC, thymidine concentration
M. luteus EN0455 = experiment: MIC; type: cell-based, Micrococcus luteus; settings: Micrococcus luteus, Combination 2, read-out: MIC, thymidine concentration
P. aeruginosa EN005 = experiment: MIC; type: cell-based, Pseudomonas aeruginosa; settings: Pseudomonas aeruginosa, Combination 2, read-out: MIC, thymidine concentration
S. aureus EN008 = experiment: MIC; type: cell-based, Staphylococcus aureus; settings: Staphylococcus aureus, Combination 2, read-out: MIC, thymidine concentration
P. aeruginosa EN0460 = experiment: MIC; type: cell-based, Pseudomonas aeruginosa; settings: Pseudomonas aeruginosa, Combination 2, read-out: MIC, thymidine concentration
S. epidermidis EN0456 = experiment: MIC; type: cell-based, Staphylococcus epidermidis; settings: Staphylococcus epidermidis, Combination 2, read-out: MIC, thymidine concentration
A. baumannii EN017 = experiment: MIC; type: cell-based, Acinetobacter baumannii; settings: Acinetobacter baumannii; A. baumannii EN017; Combination 2; read-out: MIC, thymidine concentration
[1] = tested on: A. pittii or A. nosocomialis EN0180; experiment: MIC; type: cell-based, Acinetobacter pittii or nosocomialis; settings: Combination 2, read-out: MIC, thymidine concentration
K. pneumoniae EN006 = experiment: MIC; type: cell-based, Klebsiella pneumoniae; settings: Klebsiella pneumoniae, Combination 2, read-out: MIC, thymidine concentration
S. typhimurium EN0466 = experiment: MIC; type: cell-based, Salmonella typhimurium; settings: Salmonella enterica, Combination 2, read-out: MIC, thymidine concentration
E. coli B EN0458 = experiment: MIC; type: cell-based, Escherichia coli B; settings: Escherichia coli, BEN0458, Combination 2, read-out: MIC, thymidine concentration
K. pneumoniae EN0463 = experiment: MIC; type: cell-based, Klebsiella pneumoniae; settings: Klebsiella pneumoniae, Combination 2, read-out: MIC, thymidine concentration
P. mirabilis EN0457 = experiment: MIC; type: cell-based, Proteus mirabilis; settings: Proteus mirabilis, Combination 2, read-out: MIC, thymidine concentration
E. aerogenes EN0461 = experiment: MIC; type: cell-based, Enterobacter aerogenes; settings: Klebsiella aerogenes, Combination 2, read-out: MIC, thymidine concentration
P. mirabilis ST19 EN0445 = experiment: MIC; type: cell-based, Proteus mirabilis; settings: Proteus mirabilis, ST19EN0445, Combination 2, read-out: MIC, thymidine concentration
Citrobacter sp. EN0465 = experiment: MIC; type: cell-based; settings: Combination 2, read-out: MIC, thymidine concentration
P. aeruginosa EN004 = experiment: MIC; type: cell-based, Pseudomonas aeruginosa; settings: Pseudomonas aeruginosa, Combination 2, read-out: MIC, thymidine concentration
P. aeruginosa EN014 = experiment: MIC; type: cell-based, Pseudomonas aeruginosa; settings: Pseudomonas aeruginosa, Combination 2, read-out: MIC, thymidine concentration
A. baumannii EN016 = experiment: MIC; type: cell-based, Acinetobacter baumannii; settings: Acinetobacter baumannii, Combination 2, read-out: MIC, thymidine concentration
E. coli EN002 = experiment: MIC; type: cell-based, Escherichia coli; settings: Escherichia coli, Combination 2, read-out: MIC, thymidine concentration
P. aeruginosa EN0422 = experiment: MIC; type: cell-based, Pseudomonas aeruginosa; settings: Pseudomonas aeruginosa, Combination 2, read-out: MIC, thymidine concentration

CO/N=C(\C(=O)N[C@@H]1C(=O)N2C(C(=O)[O-])=C(C[N+]3(C)CCCC3)CS[C@H]12)c1csc(N)n1 [cefepime]
MIC (S. flexneri APV00907): ≤ 1 µg/mL | MIC (S. flexneri APV00906): 2 µg/mL (≈ 4.16 µM) | MIC (K. pneumoniae EN0262): >16 µg/mL | MIC (S. sonnei APV00908): ≤ 1 µg/mL

O=c1[nH]cnc2c1ncn2[C@H]1CC[C@@H](CO)O1 [Didanosine, didanosine]
MIC (E. coli EN013; EN013, E. coli EN013, in didanosine+trimethoprim+uridine combination): 0.016 µg/mL | MIC (A. baumannii EN0007): >4 µg/mL | MIC (E. coli EN0001): 0.25 µg/mL | MIC (K. pneumoniae EN0006): 0.5 µg/mL | MIC (E. coli EN001; in didanosine+trimethoprim+uridine combination): 0.125 µg/mL | MIC (P. aeruginosa EN0004): >4 µg/mL | MIC (E. coli strain no 2; trimethoprim 0, uridine 0 μg/ml): > 30 µg/mL | MIC (E. coli strain no 2; trimethoprim 0, uridine 10 μg/ml): > 30 µg/mL | MIC (E. coli strain no 2; trimethoprim 0, uridine 100 μg/ml): > 30 µg/mL | MIC (E. coli strain no 2; trimethoprim 1 μg/ml, uridine 0 μg/ml): > 2.5 µg/mL | MIC (E. coli strain no 2; trimethoprim 1 μg/ml, uridine 10 μg/ml): > 2.5 µg/mL | MIC (E. coli strain no 2; trimethoprim 2 μg/ml, uridine 0 μg/ml): > 2.5 µg/mL | MIC (E. coli strain no 2; trimethoprim 2 μg/ml, uridine 10 μg/ml): > 2.5 µg/mL | MIC (K. pneumoniae EN011; EN011, K. pneumoniae EN011, in didanosine+trimethoprim+uridine combination): 0.125 µg/mL | MIC (P. aeruginosa EN015; EN015, P. aeruginosa EN015, in didanosine+trimethoprim+uridine combination): 1 µg/mL

CC(C)(O/N=C(\C(=O)N[C@@H]1C(=O)N2C(C(=O)[O-])=C(C[n+]3ccccc3)CS[C@H]12)c1csc(N)n1)C(=O)O [ceftazidime]
MIC (S. flexneri APV00907): ≤ 1 µg/mL | MIC (S. flexneri APV00906): 16 µg/mL (≈ 29.3 µM) | MIC (K. pneumoniae EN0262): >32 µg/mL | MIC (S. sonnei APV00908): ≤ 1 µg/mL

Cc1cn([C@H]2C[C@H](O)[C@@H](CO)O2)c(=O)[nH]c1=O [Thymidine, thymidine]
MIC (E. coli EN013; E. coli EN013, Combination 2, read-out: MIC, thymidine concentration): < 0.2 µM | MIC (K. oxytoca EN0392): 15 µM | MIC (P. aeruginosa EN0459): > 120 µM | MIC (S. marescens EN0454): > 120 µM | MIC (K. pneumoniae EN010): 30 µM | MIC (A. baumannii EN007): > 120 µM | MIC (E. coli EN012): < 0.2 µM | MIC (E. coli EN003): < 0.2 µM | MIC (M. luteus EN0455): > 120 µM | MIC (P. aeruginosa EN005): 30 µM | MIC (E. coli EN001; Escherichia coli, Combination 2, read-out: MIC, thymidine concentration): 30 µM | MIC (S. aureus EN008): > 120 µM | MIC (P. aeruginosa EN0460): > 120 µM | MIC (S. epidermidis EN0456): 60 µM | MIC (A. baumannii EN017): 30 µM | MIC [1]: > 120 µM | MIC (K. pneumoniae EN006): 15 µM | MIC (S. typhimurium EN0466): 15 µM | MIC (E. coli B EN0458): < 0.2 µM | MIC (K. pneumoniae EN0463): 8 µM | MIC (P. mirabilis EN0457): > 120 µM | MIC (E. aerogenes EN0461): 60 µM | MIC (P. mirabilis ST19 EN0445): > 120 µM | MIC (Citrobacter sp. EN0465): > 120 µM | MIC (P. aeruginosa EN004): > 120 µM | MIC (P. aeruginosa EN014): > 120 µM | MIC (A. baumannii EN016): > 120 µM | MIC (E. coli EN002): 4 µM | MIC (P. aeruginosa EN0422): > 120 µM | MIC (K. pneumoniae EN011; K. pneumoniae EN011, Combination 2, read-out: MIC, thymidine concentration): 8 µM | MIC (P. aeruginosa EN015; P. aeruginosa EN015, Combination 2, read-out: MIC, thymidine concentration): 60 µM

O=C1CN(/N=C/c2ccc([N+](=O)[O-])o2)C(=O)N1 [Nitrofurantoin]
MIC (S. flexneri APV00907): ≤ 16 µg/mL | MIC (S. flexneri APV00906): ≤ 16 µg/mL | MIC (S. sonnei APV00908): ≤ 16 µg/mL
